The results in this text go back to patent US20060045892A1, “Cosmetic compositions” (priority 2004, published 2006).

The first data set deals with skin redness, skin inflammation, irritation and skin aging. The experiment in a line: Materials tested for usefulness in the present invention (improving skin appearance, reducing skin redness, inflammation, irritation). In kind it is in vivo, humans. As to conditions: topical; related materials tested.
With `OC1CCCC1O` (stereo not drawn) [1,2-cyclopentanediol], the “usefulness (activity) in the present invention” value (“usefulness (activity)” below) was “do not work”.

Take `CC1(O)CCCCC1` [1-methylcyclohexanol]: the “usefulness (activity)” value is given as “not to be useful”.

As to `OCCCCC1CCCCC1` [4-cyclohexyl-1-butanol], the “usefulness (activity)” value is recorded as “not to be useful”.

Consider `OCC1(CO)CC2C=CC1C2` (stereo not drawn) [5-norborene-2,2-dimethanol], for which the “usefulness (activity)” value is given as “do not work”.

For the compound `CC1(C)[C@H]2C[C@H]1[C@@](C)(O)[C@@H](O)C2` [(1R,2R,3S,5S-(−))-pinanediol], the “usefulness (activity)” value was “do not work”.

Consider `C1CCCCC1` [cyclohexane], for which the “usefulness (activity)” value is “not to be useful”.

For `C1=CCCCC1` [cyclohexene], the “usefulness (activity)” value is reported as “not to be useful”.

As to `CC(=O)OC1CCCCC1` [cyclohexyl acetate], the “usefulness (activity)” value is “not to be useful”.

`O=C(O)C1CCCCC1` [cyclohexyl carboxylic acid]: the “usefulness (activity)” value is “not to be useful”.

As for `ClC1CCCCC1` [cyclohexyl chloride], the “usefulness (activity)” value is recorded as “not to be useful”.

As for `CC1CCC(C(C)C)C(O)C1` (stereo not drawn) [menthol], the “usefulness (activity)” value is “not to be useful”.

A further data set deals with skin. The experiment in a line: Skin irritation by the applied material. It is filed as in vivo, humans. As to conditions: topical.
Take `CC1CCC(C(C)C)C(O)C1` (stereo not drawn) [menthol]: the “irritation (reddening) of the skin to which it is applied” value is “can irritate”.
